Test results reported in patent US7511151B2 (priority 2002, dated 2009).

Test system: Erysiphe graminis f. sp. hordei
Conditions: in vivo

## CC#CC(C)(C)NC(=O)C(OCC)Oc1cncc(Cl)c1 (stereo not shown) [1 (1), 2-(5-chloropyridyl-3-oxy)-2-(ethoxy)-N-(2-methylpent-3-yn-2-yl) acetamide]
  control of disease: > 60%
